Measured values published in patent publication US20170280720A1, “ARGININE […] INHIBITORS AND USES THEREOF” (EPIZYME, INC., priority 2014, published 2017).
Counter-ions that a name gives are not always drawn.

target: T1, Human CARM1 (PRMT4) (Homo sapiens, UniProt Q86X55); experiment: CARM1 biochemical assay (3H-SAM Flashplate, peptide substrate); conditions: read-out: CARM1_ IC50
T1 construct: Flag-CARM1-His; made in house; host or cells: HEK 293F cells (BacMam baculovirus, pFastBacMam)
T1 sequence (Q86X55 2-585 isoform Q86X55-1): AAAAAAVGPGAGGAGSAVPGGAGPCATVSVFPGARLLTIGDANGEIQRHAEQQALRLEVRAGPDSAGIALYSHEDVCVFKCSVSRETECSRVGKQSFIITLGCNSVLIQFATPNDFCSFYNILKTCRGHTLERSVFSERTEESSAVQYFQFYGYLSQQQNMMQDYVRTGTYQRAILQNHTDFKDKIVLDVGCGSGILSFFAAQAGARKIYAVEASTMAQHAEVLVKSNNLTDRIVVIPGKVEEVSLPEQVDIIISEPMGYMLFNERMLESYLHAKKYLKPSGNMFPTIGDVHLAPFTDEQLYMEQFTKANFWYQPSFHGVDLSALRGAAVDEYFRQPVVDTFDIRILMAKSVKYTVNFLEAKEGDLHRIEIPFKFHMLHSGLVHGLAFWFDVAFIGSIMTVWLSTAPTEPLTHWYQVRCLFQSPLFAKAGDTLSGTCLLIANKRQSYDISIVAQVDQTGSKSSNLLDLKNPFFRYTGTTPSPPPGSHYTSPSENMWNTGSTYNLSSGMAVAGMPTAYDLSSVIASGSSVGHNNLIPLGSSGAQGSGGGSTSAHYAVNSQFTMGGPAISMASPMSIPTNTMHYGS
Summary of the method: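 FLAG/His-tagged human CARM1 (isoform 1, Δ539-561, baculovirus-expressed), 0.25 nM, preincubated 30 min at room temperature with compound (2% DMSO) in 20 mM Bicine pH 7.6, then reacted with 30 nM 3H-SAM and 250 nM biotinylated H3 16-30 peptide (R26 monomethyl). Stopped with 300 uM cold SAM; labelled peptide captured on streptavidin Flashplate; % inhibition versus DMSO and 1 mM SAH controls fitted to a 4- or 3-parameter curve.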

For CNCCN(C)Cc1cccc(-c2cc(OC3CCOC3)c3cnn(C(C)C)c3n2)c1 (centres unmarked) [Compound 102], which IC50 is on record?
The IC50 was 22.4 nM.

Which IC50 does the source give for CNCCN(C)Cc1cccc(-c2cc(C(=O)NCc3cc(C)nn3C)c3cnn(C(C)C)c3n2)c1 [Compound 120] here?
Its IC50 is 35.6 nM.

For CCS(=O)(=O)Nc1cc(-c2cccc(CN(C)CCN)c2)nc2c1cnn2C(C)C [Compound 111], which IC50 is on record?
Its IC50 is 131 nM.

COc1ccccc1Cn1cnc2ccc(-c3ccc(CNCCN)cc3)cc21 [Compound 80] was tested. Which IC50 did it give?
Its IC50 is 4810 nM.

CNCCN(C)Cc1cccc(-c2cc(C(=O)NCCCC(=O)NCc3ccn(C)n3)c3cnn(C(C)C)c3n2)c1 [Compound 88] was tested. Which IC50 did it give?
The IC50 was 16.5 nM.

For CNCCN(C)Cc1cccc(-c2cc(C(=O)NCC3CCOCC3)c3cnn(C(C)C)c3n2)c1 [Compound 105], which IC50 is on record?
Its IC50 is 18.1 nM.

For NCCNCc1ccc(-c2ccc3ncn(Cc4ccc(C(=O)N5CCCC5)cc4)c3c2)cc1 [Compound 104], which IC50 is on record?
The IC50 was 4120 nM.

With CC(C)n1ncc2c(C(=O)NCc3ccccc3Cl)cc(-c3cccc(CN(C)CCN)c3)nc21 [Compound 54] as the compound, how does the IC50 read?
Its IC50 is 26.1 nM.

How did the IC50 turn out when CN(CCN)Cc1cccc(-c2nc(NC3CC3)c3cnn(C4CC4)c3n2)c1 [Compound 96] was run?
The IC50 was 8.42 nM.

Which IC50 does the source give for CNCCN(C)Cc1cccc(-c2ccc3nc[nH]c3c2)c1 [Compound 75] here?
The IC50 was 10000 nM.

Cc1c(CNc2nc(-c3cccc(CN(C)CCN)c3)nc3c2cnn3C2CC2)cnn1C [Compound 52] was tested. Which IC50 did it give?
Its IC50 is 4.04 nM.

For CNCCN(C)Cc1cccc(-c2ccc3ncn(C)c3c2)c1 [Compound 92], which IC50 is on record?
Its IC50 is 6490 nM.

Cc1cccc(-n2cnc3ccc(-c4ccc(CNCCN)cc4)cc32)c1 [Compound 106] was tested. Which IC50 did it give?
The IC50 was 14900 nM.

For CNCCN(C)Cc1cccc(-c2nc(NCc3cnn(C)c3C)c3cnn(C4CC4)c3n2)c1 [Compound 57], which IC50 is on record?
Its IC50 is 18.5 nM.

For CC(C)n1ncc2c(C(=O)NCC3CCOCC3)cc(-c3cccc(CN(C)CCN)c3)nc21 [Compound 108], which IC50 is on record?
Its IC50 is 10.4 nM.

For CC(C)n1ncc2c(C(=O)N[C@@H](C)c3ccccc3)cc(-c3cccc(CNCCN)c3)cc21 [Compound 125], which IC50 is on record?
The IC50 was 75.8 nM.

With CC(C)n1ncc2c(NC3CCOCC3)cc(-c3cccc(CN(C)CCN)c3)nc21 [Compound 101] as the compound, how does the IC50 read?
Its IC50 is 5.11 nM.

With CNCCN(C)Cc1cccc(-c2nc(NCc3cn4ccsc4n3)c3cnn(C4CC4)c3n2)c1 [Compound 6] as the compound, how does the IC50 read?
Its IC50 is 23.8 nM.

CNCCN(C)Cc1cccc(-c2cc(C(=O)NCCC(=O)NCC3CCOCC3)c3cnn(C(C)C)c3n2)c1 [Compound 64] was tested. Which IC50 did it give?
Its IC50 is 24.9 nM.

For CNCCN(C)Cc1cccc(-c2cc(N3CCC(C#N)CC3)c3cnn(C(C)C)c3n2)c1 [Compound 93], which IC50 is on record?
Its IC50 is 10.6 nM.

With CCC(O)c1cc(-c2cccc(CN(C)CCNC)c2)nc2c1cnn2C(C)C (centres unmarked) [Compound 48] as the compound, how does the IC50 read?
The IC50 was 154 nM.

With CNCCN(C)Cc1cccc(-c2cc(C(=O)N3CCCCC3)c3cnn(C(C)C)c3n2)c1 [Compound 56] as the compound, how does the IC50 read?
The IC50 was 219 nM.

For CNCCN(C)Cc1cccc(-c2ccc3cnn(C(C)C)c3c2)c1 [Compound 100], which IC50 is on record?
The IC50 was 3700 nM.

Which IC50 does the source give for CNCCN(C)Cc1cccc(-c2nc(NCc3ccccn3)c3cnn(C4CC4)c3n2)c1 [Compound 9] here?
Its IC50 is 7.59 nM.

With CN(CCN)Cc1cccc(-c2nc(NCc3cn4ccsc4n3)c3cnn(C4CC4)c3n2)c1 [Compound 5] as the compound, how does the IC50 read?
The IC50 was 3.24 nM.

CNCCN(C)Cc1cccc(-c2nc(NCc3cccnc3)c3cnn(C4CC4)c3n2)c1 [Compound 63] was tested. Which IC50 did it give?
The IC50 was 17 nM.

With CNCCN(C)Cc1cccc(-c2nc(NCc3ccncc3)c3cnn(C4CC4)c3n2)c1 [Compound 69] as the compound, how does the IC50 read?
Its IC50 is 19.5 nM.

With CCOc1cc(-c2cccc(CN(C)CCNC)c2)nc2c1cnn2C(C)C [Compound 53] as the compound, how does the IC50 read?
Its IC50 is 19.9 nM.

With CNCCN(C)Cc1cccc(-c2cc(OC)c3cnn(C(C)C)c3n2)c1 [Compound 124] as the compound, how does the IC50 read?
The IC50 was 75.5 nM.

With COc1cccc(CCn2cnc3ccc(-c4ccc(CNCCN)cc4)cc32)c1 [Compound 94] as the compound, how does the IC50 read?
The IC50 was 4270 nM.

Which IC50 does the source give for Cc1c(C(=O)NCc2ccccc2)cc(-c2ccc(CN(C)CCN)cc2)c2cn[nH]c12 [Compound 7] here?
The IC50 was 6830 nM.

With Cc1ccc(Cn2cnc3ccc(-c4ccc(CNCCN)cc4)cc32)cc1 [Compound 97] as the compound, how does the IC50 read?
Its IC50 is 8190 nM.

Which IC50 does the source give for CNCCN(C)Cc1cccc(-c2cc(N(C)C)c3cnn(C(C)C)c3n2)c1 [Compound 103] here?
The IC50 was 57.7 nM.

CCOC(=O)c1cc(-c2cccc(CN(C)CCNC)c2)nc2c1cnn2C(C)C [Compound 78] was tested. Which IC50 did it give?
The IC50 was 18 nM.

Which IC50 does the source give for CNCCN(C)Cc1cccc(-c2cc(N3CCOCC3)c3cnn(C(C)C)c3n2)c1 [Compound 68] here?
The IC50 was 9.84 nM.

CC(C)n1ncc2c(NC(=O)N(C)C)cc(-c3cccc(CN(C)CCN)c3)nc21 [Compound 116] was tested. Which IC50 did it give?
Its IC50 is 23.4 nM.

How did the IC50 turn out when CNCCN(C)Cc1cccc(-c2cc(N3CCC(OC)CC3)c3cnn(C(C)C)c3n2)c1 [Compound 51] was run?
The IC50 was 16.7 nM.

CC(C)n1ncc2c(N3CCOCC3)cc(-c3cccc(CN(C)CCN)c3)nc21 [Compound 61, N1-(3-(1-isopropyl-4-morpholino-1H-pyrazolo[3,4-b]pyridin-6-yl)benzyl)-N1-methylethane-1,2-diamine] was tested. Which IC50 did it give?
Its IC50 is 5.22 nM.

For CNCCN(C)Cc1cccc(-c2nc(N3CCOCC3)c3cnn(C(C)C)c3n2)c1 [Compound 99], which IC50 is on record?
Its IC50 is 11.3 nM.

COC(=O)Nc1cc(-c2cccc(CN(C)CCN)c2)nc2c1cnn2C(C)C [Compound 71] was tested. Which IC50 did it give?
The IC50 was 10.6 nM.

How did the IC50 turn out when CC(C)n1cc2c(Cl)cc(-c3cccc(CN(C)CCN)c3)nc2n1 [Compound 59] was run?
Its IC50 is 707 nM.

For CNCCN(C)Cc1cccc(-c2cc(N3CCOCC3)n3ncc(C(C)C)c3n2)c1 [Compound 62, N1-(3-(3-isopropyl-7-morpholinopyrazolo[1,5-a]pyrimidin-5-yl)benzyl)-N1,N2-dimethylethane-1,2-diamine formate], which IC50 is on record?
The IC50 was 20.8 nM.

Which IC50 does the source give for CNCCN(C)Cc1cccc(-c2cc(NC3CCOCC3)c3cnn(C(C)C)c3n2)c1 [Compound 76] here?
The IC50 was 13.2 nM.

How did the IC50 turn out when CC(C)n1ncc2c(NS(=O)(=O)N(C)C)cc(-c3cccc(CN(C)CCN)c3)nc21 [Compound 107] was run?
The IC50 was 25.8 nM.

Which IC50 does the source give for CN(CCN)Cc1cccc(-c2nc(N(C)C3CCOCC3)c3cnn(C4CC4)c3n2)c1 [Compound 119] here?
The IC50 was 4.77 nM.

Which IC50 does the source give for CC(C)NC(=O)Nc1cc(-c2cccc(CN(C)CCN)c2)nc2c1cnn2C(C)C [Compound 86] here?
The IC50 was 8.11 nM.

For CNCCN(C)Cc1cccc(-c2cc(C#N)c3cnn(C(C)C)c3n2)c1 [Compound 74], which IC50 is on record?
Its IC50 is 38.4 nM.

With CNCCN(C)Cc1cccc(-c2cc(NC)c3cnn(C(C)C)c3n2)c1 [Compound 121] as the compound, how does the IC50 read?
The IC50 was 70.2 nM.

Which IC50 does the source give for NCCNCc1ccc(-c2ccc3ncn(CC4CCNCC4)c3c2)cc1 [Compound 70] here?
Its IC50 is 11700 nM.

How did the IC50 turn out when CNCCN(C)Cc1cccc(-c2cc(N3CCCC(C#N)C3)c3cnn(C(C)C)c3n2)c1 (centres unmarked) [Compound 55] was run?
Its IC50 is 35.5 nM.

How did the IC50 turn out when CNCCN(C)Cc1cccc(-c2cc(-c3cnn(C)c3)c3cnn(C(C)C)c3n2)c1 [Compound 49, N1-(3-(1-isopropyl-4-(1-methyl-1H-pyrazol-4-yl)-1H-pyrazolo[3,4-b]pyridin-6-yl)benzyl)-N1,N2-dimethylethane-1,2-diamine] was run?
Its IC50 is 12.4 nM.

How did the IC50 turn out when CN(CCN)Cc1cccc(-c2nc(NCc3ccncc3)c3cnn(C4CC4)c3n2)c1 [Compound 66] was run?
The IC50 was 6.32 nM.

With CC(C)n1ncc2c(C(=O)NCc3ccccc3F)cc(-c3cccc(CN(C)CCN)c3)nc21 [Compound 65] as the compound, how does the IC50 read?
The IC50 was 8.39 nM.

For NCCNCc1ccc(-c2ccc3ncn(CC4CCCNC4)c3c2)cc1 (centres unmarked) [Compound 81], which IC50 is on record?
The IC50 was 4270 nM.

With COc1cccc(-n2cnc3ccc(-c4ccc(CNCCN)cc4)cc32)c1 [Compound 110] as the compound, how does the IC50 read?
Its IC50 is 10600 nM.

Which IC50 does the source give for CNCCN(C)Cc1cccc(-c2cc(C(=O)NCCC(=O)NCc3ccn(C)n3)c3cnn(C(C)C)c3n2)c1 [Compound 83] here?
Its IC50 is 25.7 nM.
